In patent publication US20250221953A1 (The University of Chicago, priority 2022, published 2025):

Each compound was assayed on Jurkat T cells. Details: IL-2 production level in treated group compared to control group; 48 hours treatment, then anti-CD3/anti-CD28 12 hours.
Format: cell-based, human
Excerpt: Two preliminary screens were designed and performed.
To construct “blood chemical compound library for cell-based screening purposes, components such as antibodies that are difficult to distinguish due to a wide variety, and some supplements that only function at a whole organism level including fish oils and herbs were excluded. Physiological ranges of serum levels of individual blood chemicals are available in the human metabolome database (https://hmdb.ca/) and applied in the experimental design. For first screen 1a, Jurkat T cells were treated with blood chemical library for 48 hours and then activated with 2.5 μg/mL anti-CD3 and 0.5 μg/mL anti-CD28 antibodies for another 12 hours, followed by measurement of IL-2 level in medium supernatant using ELISA kit (Biolegend). For first screen 1b, 1×10^5 PD-1^+ Jurkat T cells were co-cultured with 2×10^4 H596 (PD-L1^+) cells in a well of 96-well plate for 60 hours, and then activated with 2.5 μg/mL anti-CD3 and 0.5 μg/mL anti-CD28 antibodies for another 12 hours, followed by measurement of IL-2 level in medium supernatant using ELISA kit. Please also refer to Resources Table and Table 1-2 for more details.

Compound | Relative changed percentage (%)
Nc1ncnc2c1ncn2[C@@H]1O[C@H](COP(=O)([O-])OP(=O)([O-])OP(=O)(O)O)[C@@H](O)[C@H]1O.[Na+].[Na+] [Adenosine 5′-Triphosphate Disodium] | −38.28
[Br-].[K+] [POTASSIUM BROMIDE] | 78.36
CCCCCCCCCCCCCCCC(=O)O [Palmitic Acid] | −2.643
PECTIN | −4.914
O=C(O)[C@@H]1C[C@@H](O)CN1 [trans-4-Hydroxy-L-proline] | 5.281
CCCC/C=C\CCCCCCCC(=O)O [Myristoleic acid] | −21.38
CC1=C(C/C=C(\C)CCC[C@H](C)CCC[C@H](C)CCCC(C)C)C(=O)c2ccccc2C1=O [VITAMIN K1] | 10.13
Bilirubin Mixed Isomers | −37.62
Cc1ncc(CO)c(CO)c1O [PYRIDOXINE] | 11.1111
N[C@@H](Cc1cc(I)c(Oc2cc(I)c(O)c(I)c2)c(I)c1)C(=O)O [L-THYROXINE] | 18.7243
O=C([O-])[C@@H](O)[C@@H](O)[C@H](O)[C@@H](O)C(=O)[O-].[Ca+2] [Calcium d-glucarate] | −12.14
CC1=C(/C=C/C(C)=C/C=C/C(C)=C/C=C/C=C(C)/C=C/C=C(C)/C=C/C2=C(C)C[C@@H](O)CC2(C)C)C(C)(C)CCC1 [BETA-CRYPTOXANTHIN] | 24.88
COc1ccc2[nH]cc(CCNC(C)=O)c2c1 [MELATONIN CRYSTALLINE/melatonin, melatonin] | 56.15
Cl.NCCCC[C@H](N)C(=O)O [L-Lysine hydrochloride] | −1.605
c1cncnc1 [PYRIMIDINE] | 4.127
O=C(O)CCCC[C@@H]1SC[C@@H]2NC(=O)N[C@@H]21 [BIOTIN, POWDER,, BIOTIN] | 36.45
O=C([O-])[O-].[Ca+2] [Calcium Carbonate] | −8.75
NS(=O)(=O)c1cc(C(=O)O)c(NCc2ccco2)cc1Cl [FUROSEMIDE/LASIX, FUROSEMIDE, reference compound] | 29.01
O=C([O-])CC(O)(CC(=O)[O-])C(=O)[O-].O=C([O-])CC(O)(CC(=O)[O-])C(=O)[O-].[Ca+2].[Ca+2].[Ca+2] [Calcium citrate] | −14.58
FERRITIN TYPE IV FROM HUMAN LIVER | 9.075
CC[N+](CC)(CC)CC.O=S(=O)([O-])O | −35.95
N[C@@H](CO)C(=O)O [L-Serine] | −22.11
O=C([O-])CC(O)(CC(=O)[O-])C(=O)[O-].[K+].[K+].[K+] [Potassium Citrate] | 58.7511
O=S(=O)([O-])[O-].[Cu+2] [Copper sulfate] | −26.32
O=[Se](O)O [sodium selenite] | 13.27

Compound | Relative changed percentage (%)
CC(C)=CCC/C(C)=C/C=C/C(C)=C/C=C/C(C)=C/C=C/C=C(C)/C=C/C=C(C)/C=C/C=C(\C)CCC=C(C)C [Lycopene] | 30
ALPHA 1 ANTITRYPSIN, HUMAN PLASMA | −10.6
O=C(O)CC(O)(CC(=O)O)C(=O)O [Citric Acid] | −36.8
ADENINE DI[…] SALT HYDRAT | −0.3704
C[C@H](O)C(=O)[O-].[Na+] [L(+)LACTIC ACID SODIUM] | 5.082
O=C(O)CCCCC1CCSS1 (stereo not drawn) [alpha-lipoic acid] | 54.62
C[N+](C)(C)CC(=O)O [BETAINE] | −18.83
ARG8-VASOPRESSIN ACETATE SALT | −7.61
[Cl-].[Cl-].[Zn+2] [ZINC CHLORIDE] | 13.34
[Cl-].[Cl-].[Sr+2] [strontium chloride] | 30.89
Oc1ccccc1 [PHENOL] | 26.79
Cl.NCCC[C@H](N)C(=O)O [L-ORNITHINE MONOHYDROCHLORIDE] | 8.054
Alpha-Tocopherol [(+/−)-A-TOCOPHEROL/Alpha-Tocopherol] | 40.65
NC(N)=O [UREA] | −0.3112
O=C[C@H](O)[C@@H](O)[C@H](O)[C@H](O)C(=O)O [D-Glucuronic Acid] | −45.8
CC1=C(/C=C/C(C)=C/C=C/C(C)=C/C=C/C=C(C)/C=C/C=C(C)/C=C/C2=C(C)CCCC2(C)C)C(C)(C)CCC1 [all trans B carotene] | 35.08
Collagen type II | 8.555
C[N+](C)(C)CCO.[Cl-] [Choline Chloride] | −41.11
N[C@@H](Cc1ccccc1)C(=O)O [L-Phenylalanine] | −17.2378
C[C@]12CCC(=O)C[C@@H]1CC[C@@H]1[C@@H]2CC[C@]2(C)[C@@H](O)CC[C@@H]12 [5ALPHA-DIHYDROTESTOSTERONE (DIIT)/DIIT, 5ALPHA-DIHYDROTESTOSTERONE] | −3.457
CC(C)[C@H](N)C(=O)O [L-Valine] | 5.296
Cc1ncc(CO)c(CO)c1O.Cl [Pyridoxine Hydrochloride] | −17.45
[Cl][Cr]([Cl])[Cl] [Chromium Chloride] | −35.28
CC(C)C[C@H](N)C(=O)O [L-Leucine] | −7.16
CC(=O)O[C@H]1CC[C@@]2(C)C(=CC[C@H]3[C@@H]4CC[C@H](C(C)=O)[C@@]4(C)CC[C@@H]32)C1 [Pregnenolone Acetate] | 82.91

Compound | Relative changed percentage (%)
O[C@H]1[C@H](O)[C@@H](O)[C@H](O)[C@@H](O)[C@H]1O [Inositol] | 15.38
ZINC SULFATE HEPTAHYDRATE | 1.046
C[C@]12CCC(=O)C=C1CC[C@@H]1[C@@H]2C(=O)C[C@@]2(C)[C@H]1CC[C@]2(O)C(=O)CO [CORTISONE] | −12.29
O=S(=O)([O-])[O-].[Cu+2] [COPPER(II) SULFATE, ANHYDROUS,/copper, COPPER(II) SULFATE, ANHYDROUS] | 51.65
SULFUR/sulfide | 24.14
O=S(=O)([O-])[O-].[O]=[V+2] [Vanadylsulfate] | 7.094
O=C([O-])O.[Na+] [SODIUM BICARBONATE] | 50.35
CC1=CC(=O)C(C(C)C)=CC1=O [Thymoquinone] | 4.558
androsterone [AN[…],/androsterone] | 15.91
PROINSULIN C-PEPTIDE (55-89) [PROINSULIN C-PEPTIDE (55-89)/c-peptide] | 17.8836
CCCCCCCCCCCCCC(=O)O [Myristic Acid] | −17.39
C-PEPTIDE FRAGMENT 3-33, HUMAN [C-PEPTIDE FRAGMENT 3-33, HUMAN/C-peptide] | −11.7
L-A-PHOSPHATIDYLETHANOLAMINE TYPE I | 32.24
C[N+](C)(C)CC(=O)[O-] [Trimethylglycine] | 9.459
O=C([O-])CC(O)(CC(=O)[O-])C(=O)[O-].O=C([O-])CC(O)(CC(=O)[O-])C(=O)[O-].[Zn+2].[Zn+2].[Zn+2] [Zinc Citrate] | −2.073
O=C([O-])/C=C/C(=O)[O-].[Fe+2] [Ferrous Fumarate] | 6.278
Cc1c(O)cc2c(c1C)O[C@](C)(CCC[C@H](C)CCC[C@H](C)CCCC(C)C)CC2 [(+)-GAMMA-TOCOPHEROL] | 1.56
CC(C)=O [ACETONE] | −31.07
CCCCC/C=C\C/C=C\C/C=C\C/C=C\CCCC(=O)O [Arachidonic acid] | 4.583
O=C(O)[C@@H]1CCCN1 [L-Proline] | −3.935
O=P([O-])(O)O.[K+] [Monopotassium Phosphate] | 28.67
[Br-].[Na+] [SODIUM BROMIDE] | −26.98
O=S(=O)([O-])[O-].[Na+].[Na+] [SODIUM SULFATE] | 38.99
N[C@@H](CS)C(=O)O [L-CYSTEINE BIOULTRA,, L-CYSTEINE] | −22.74
Nc1cc[nH]c(=O)n1 [CYTOSINE] | 74.6228

Same assay, conditions: IL-2 production level in treated group compared to control group; 48 hours treatment, then anti-CD3/anti-CD28 12 hours; Hydrochloride

Compound | Relative changed percentage (%)
Cl.N[C@H]1C(O)O[C@H](CO)[C@@H](O)[C@@H]1O (stereo partly shown) [Glucosamine Hydrochloride] | −6.979
Cl.N[C@H]1C(O)O[C@H](CO)[C@@H](O)[C@@H]1O (stereo partly drawn) [D-(+)-Glucosamine Hydrochloride] | −38.23

Same assay, conditions: IL-2 production level in treated group compared to control group; 48 hours treatment, then anti-CD3/anti-CD28 12 hours; listed as HYALURONIC ACID SODIUM SALT, sodium salt

Compound | Relative changed percentage (%)
Hyaluronic acid sodium salt | −9.738

Same assay, conditions: IL-2 production level in treated group compared to control group; 48 hours treatment, then anti-CD3/anti-CD28 12 hours; sodium salt

Compound | Relative changed percentage (%)
Hyaluronic acid sodium salt | 3.093
